Measurements published in the supplement of paper PMC11208160.

assay: recombinant UMI read abundance after kanamycin selection (control-corrected) (log10(CPM+1)); higher = more efficient recombination; extreme values may be limits of the assay; sequences stand for … in AGTGCAGAGAAAATCGGCCAGTTTTCTCTGCCTGCAGTCCGCATGCCGTGGGACCCCTTGGGTTCTAACCTGTTGCCTAGATTTATGCAGCGGACTGCCTTTCTCCCAAAGTGATAAACCGG…AGGTTGGTTTCACT; site = the 11-nt donor
Procedure, shortened: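 In Escherichia coli, a pool of donor and donor-binding-loop pairs, each with a 12-nt UMI, was tested for the IS621 bridge recombinase. Plating was on IPTG (0.07 mM) plus kanamycin, or without selection, in two replicates. Recombinant UMIs were amplified by PCR across the donor–target junction and sequenced, and counts were reported as log10(CPM+1) after averaging and control-derived scaling.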
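Note: IS621 bridge recombinase in Escherichia coli cells against a fixed T5 target plasmid.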

Sequence	recombinant UMI read abundance (log10)
CGATTATCATGGACCGGTTTTCCCGGTAATCCGTATTTGCT (site CGATAATCTAG)	0.446
CGATTATCATGGACCGGTTTTCCCGGTAATCCGTATTTGCT (site CGATCATCTAG)	0
CGATTATCATGGACCGGTTTTCCCGGTAATCCGTATTTGCT (site CGATGATCTAG)	0
CGATTATCATGGACCGGTTTTCCCGGTAATCCGTATTTGCT (site CGATTATCTAG)	2.28
CGATTCCCATGGACCGGTTTTCCCGGTAATCCGTATTTGCT (site CAATTCCCTAG)	0.32
CGATTCCCATGGACCGGTTTTCCCGGTAATCCGTATTTGCT (site CCATTCCCTAG)	1.03
CGATTCCCATGGACCGGTTTTCCCGGTAATCCGTATTTGCT (site CGATTCCCTAG)	0.704
CGATTCCCATGGACCGGTTTTCCCGGTAATCCGTATTTGCT (site CTATTCCCTAG)	0
CGATTGGCATGGACCGGTTTTCCCGGTAATCCGTATTTGAT (site CGATTGGCTAT)	2.26
CGCAACACATGGACCGGTTTTCCCGGTAATCCGTATTTGCG (site CGCAACACTCG)	1.19
CGCAACCCATGGACCGGTTTTCCCGGTAATCCGTATTTGTT (site CGCAACCCTAA)	0.717
CGCAACCCATGGACCGGTTTTCCCGGTAATCCGTATTTGTT (site CGGAATCCTAA)	0
CGCAATCCATGGACCGGTTTTCCCGGTAATCCGTATTTGGT (site CGCAATCCTAC)	0.135
CGCAATCCATGGACCGGTTTTCCCGGTAATCCGTATTTGGT (site CGGAATCCTAA)	0
CGCACCGCATGGACCGGTTTTCCCGGTAATCCGTATTTGCA (site CGCACCGCTTG)	2.35
CGCATTACATGGACCGGTTTTCCCGGTAATCCGTATTTGCA (site CGCATTACTTG)	1.64
CGCATTTCATGGACCGGTTTTCCCGGTAATCCGTATTTGAG (site CGCATTTCTCT)	0.426
CGCCACTCATGGACCGGTTTTCCCGGTAATCCGTATTTGCG (site CGCCACTCTCG)	2.05
CGCCCGACATGGACCGGTTTTCCCGGTAATCCGTATTTGCC (site CGCCCGACTGG)	2.5
CGCCCTACATGGACCGGTTTTCCCGGTAATCCGTATTTGAG (site CACCCTACTCT)	0.475
CGCCCTACATGGACCGGTTTTCCCGGTAATCCGTATTTGAG (site CCCCCTACTCT)	0.0131
CGCCCTACATGGACCGGTTTTCCCGGTAATCCGTATTTGAG (site CGCCCTACTCT)	1.44
CGCCCTACATGGACCGGTTTTCCCGGTAATCCGTATTTGAG (site CTCCCTACTCT)	0.0151

Sequence	recombinant UMI read abundance (log10)
CGCCGCACATGGACCGGTTTTCCCGGTAATCCGTATTTGCT (site CGCCGAACTAG)	0
CGCCGCACATGGACCGGTTTTCCCGGTAATCCGTATTTGCT (site CGCCGCACTAG)	2.18
CGCCGCACATGGACCGGTTTTCCCGGTAATCCGTATTTGCT (site CGCCGGACTAG)	0.00439
CGCCGCACATGGACCGGTTTTCCCGGTAATCCGTATTTGCT (site CGCCGTACTAG)	0
CGCCGGACATGGACCGGTTTTCCCGGTAATCCGTATTTGCT (site CGCCGAACTAG)	2.52
CGCCGGACATGGACCGGTTTTCCCGGTAATCCGTATTTGCT (site CGCCGCACTAG)	0.00459
CGCCGGACATGGACCGGTTTTCCCGGTAATCCGTATTTGCT (site CGCCGGACTAG)	1.82
CGCCGGACATGGACCGGTTTTCCCGGTAATCCGTATTTGCT (site CGCCGTACTAG)	0
CGCCGTACATGGACCGGTTTTCCCGGTAATCCGTATTTGCT (site AGCCGTACTAG)	0.192
CGCCGTACATGGACCGGTTTTCCCGGTAATCCGTATTTGCT (site CACCGTACTAG)	0.33
CGCCGTACATGGACCGGTTTTCCCGGTAATCCGTATTTGCT (site CCCCGTACTAG)	0.907
CGCCGTACATGGACCGGTTTTCCCGGTAATCCGTATTTGCT (site CGACGTACTAG)	0.00883
CGCCGTACATGGACCGGTTTTCCCGGTAATCCGTATTTGCT (site CGCAGTACTAG)	0.331
CGCCGTACATGGACCGGTTTTCCCGGTAATCCGTATTTGCT (site CGCCATACTAG)	0.922
CGCCGTACATGGACCGGTTTTCCCGGTAATCCGTATTTGCT (site CGCCCTACTAG)	0.301
CGCCGTACATGGACCGGTTTTCCCGGTAATCCGTATTTGCT (site CGCCGAACTAG)	0
CGCCGTACATGGACCGGTTTTCCCGGTAATCCGTATTTGCT (site CGCCGCACTAG)	0.796
CGCCGTACATGGACCGGTTTTCCCGGTAATCCGTATTTGCT (site CGCCGGACTAG)	0
CGCCGTACATGGACCGGTTTTCCCGGTAATCCGTATTTGCT (site CGCCGTACTAA)	0.0116
CGCCGTACATGGACCGGTTTTCCCGGTAATCCGTATTTGCT (site CGCCGTACTAC)	0.00604
CGCCGTACATGGACCGGTTTTCCCGGTAATCCGTATTTGCT (site CGCCGTACTAG)	1.59
CGCCGTACATGGACCGGTTTTCCCGGTAATCCGTATTTGCT (site CGCCGTACTAT)	0.0196
CGCCGTACATGGACCGGTTTTCCCGGTAATCCGTATTTGCT (site CGCCGTACTCG)	0.111

Sequence	recombinant UMI read abundance (log10)
CGCCGTACATGGACCGGTTTTCCCGGTAATCCGTATTTGCT (site CGCCGTACTGG)	0
CGCCGTACATGGACCGGTTTTCCCGGTAATCCGTATTTGCT (site CGCCGTACTTG)	0.00335
CGCCGTACATGGACCGGTTTTCCCGGTAATCCGTATTTGCT (site CGCCGTCCTAG)	0
CGCCGTACATGGACCGGTTTTCCCGGTAATCCGTATTTGCT (site CGCCGTGCTAG)	0.065
CGCCGTACATGGACCGGTTTTCCCGGTAATCCGTATTTGCT (site CGCCGTTCTAG)	0
CGCCGTACATGGACCGGTTTTCCCGGTAATCCGTATTTGCT (site CGCCTTACTAG)	0
CGCCGTACATGGACCGGTTTTCCCGGTAATCCGTATTTGCT (site CGCGGTACTAG)	0
CGCCGTACATGGACCGGTTTTCCCGGTAATCCGTATTTGCT (site CGCTGTACTAG)	0
CGCCGTACATGGACCGGTTTTCCCGGTAATCCGTATTTGCT (site CGGCGTACTAG)	0.0034
CGCCGTACATGGACCGGTTTTCCCGGTAATCCGTATTTGCT (site CGTCGTACTAG)	0
CGCCGTACATGGACCGGTTTTCCCGGTAATCCGTATTTGCT (site CTCCGTACTAG)	0
CGCCGTACATGGACCGGTTTTCCCGGTAATCCGTATTTGCT (site GGCCGTACTAG)	0.00569
CGCCGTACATGGACCGGTTTTCCCGGTAATCCGTATTTGCT (site TGCCGTACTAG)	0.0708
CGCCGTACATGGACCGGTTTTCCCGGTAATCCGTATTTGTT (site CGCCGTACTAA)	1.23
CGCCGTACATGGACCGGTTTTCCCGGTAATCCGTATTTGTT (site CGCCGTACTAC)	0.00659
CGCCGTACATGGACCGGTTTTCCCGGTAATCCGTATTTGTT (site CGCCGTACTAG)	0.486
CGCCGTACATGGACCGGTTTTCCCGGTAATCCGTATTTGTT (site CGCCGTACTAT)	0.0268
CGCCGTGCATGGACCGGTTTTCCCGGTAATCCGTATTTGCT (site CGCCGTACTAG)	1.29
CGCCGTGCATGGACCGGTTTTCCCGGTAATCCGTATTTGCT (site CGCCGTCCTAG)	0.00563
CGCCGTGCATGGACCGGTTTTCCCGGTAATCCGTATTTGCT (site CGCCGTGCTAG)	1.97
CGCCGTGCATGGACCGGTTTTCCCGGTAATCCGTATTTGCT (site CGCCGTTCTAG)	0.0147
CGCCGTTCATGGACCGGTTTTCCCGGTAATCCGTATTTGCT (site CGCCGTACTAG)	0
